This is an account of results in patent US8710045B2, “Agents for preventing and treating disorders involving modulation of the ryanodine receptors” (The Trustees of Columbia University in the City of New York, priority 2004, dated 2014).

Molecules are shown by their SMILES. Read-outs that look alike come from different tables or passages of the source.

For one series, the system named is calpain. Nature of the series: Calpain activity in mdx mouse muscular dystrophy model during exercise. Type of series: in vivo. The settings on record: mdx mice, 0.125 mg/kg/h for 28 days, downhill treadmill. The method, then: After treatment, the mice were subjected to downhill (14° angel) treadmill running for 30 min at 18 m/min. Immediately after the exercise, the animals were sacrificed and the skeletal muscles were harvested.
Preparation of EDL Homogenates: EDL muscles homogenates were prepared in 0.5 ml of homogenization buffer (20 mM NaF, 10 mM Tris-maleate, pH7.2+protease inhibitors). […] sarcoplasmic reticulum (CSR) fractions were obtained by centrifuging the homogenates at 50,000×g for 30 min. Homogenates were centrifuged at 4000×g for 20 min and the supernatants were centrifuged for 20 min at 10000×g. Aliquots of the homogenates were assayed for protein concentration and stored at −80° C.
Calpain Activity Assay: Calpain activity of EDL homogenates (30 μg) were measured using a Calpain Activity Assay kit (Calbiochem). The assay utilizes a synthetic calpain substrate, suc-LLVY-AMC. AMC is released upon cleavage with calpain and is measured fluorometrically. Assays are performed with both an activation and an inhibition buffer to determine specific calpain activity in the sample.

Series [1] concerns the target T1, RyR1 (Mus musculus, UniProt E9PZQ0).
T1 construct: RyR1 was immunoprecipitated from soleus muscle homogenates of mice following 21 days of exercise; from tissue; host or cells: mouse hind-limb skeletal muscle (soleus, EDL; SR microsomes for bilayer recording)
Description: RyR1 single channel recording in planar lipid bilayers from exercised mice. In kind it is in vivo. The note with it: 90 nM [Ca2+]cis. The method, then: RyR1 channels were reconstituted by spontaneous fusion of microsomes into the planar lipid bilayer (a mixture of phosphatidylethanolamine and phosphatidylserine in a 3:1 ratio, Avanti Polar Lipids). Planar lipid bilayers were formed across a 200 μm aperture in a polysulfonate cup (Warner Instruments, Inc.), which separated two bathing solutions (1 mM EGTA, 250/125 mM HEPES/Tris, 50 mM KCl, 0.5 mM CaCl2, pH 7.35 as cis solution and 53 mM Ba(OH)2, 50 mM KCl, 250 mM HEPES, pH 7.35 as trans solution). After incorporation, RyR1 channel activity was recorded continuously for at least 10 minutes. The concentration of free Ca^2+ in the cis chamber was calculated with WinMaxC program (version 2.50) (Bers, Patton et al. 1994). Single channel currents were recorded at 0 mV using the Axopatch 200A patch-clamp amplifier (Axon Instruments, USA) in gap-free mode, filtered at 1 kHz, and digitized at 10 kHz. Data acquisition was performed using Digidata 1322A and Axoscope 9 software (Axon Instruments, USA). The recordings were analyzed using Clampfit 10.1 (Molecular Devices, USA) and Origin software (ver. 6.0, Microcal Software, Inc., USA).
Chronic exercise results in leaky RyR1 Channels which can be reversed by calstabin1 rebinding: A critical issue is whether the biochemical changes in the RyR1 macromolecular complex identified during exercise result in changes in RyR1 channel activity. […]

Series [2] deals with L-type calcium channel current. Nature of the series: S107 specificity: L-type calcium channel current. The settings on record: 500 nM.
Series [3] deals with T1, RyR1. Nature of the series: RyR1 immunoprecipitation from soleus muscle after 21 days of exercise, calstabin1 western blot. Type of series: in vivo. The settings on record: subcutaneous mini-osmotic pump. The method, then: RyR1 was immunoprecipitated from soleus muscle homogenates of mice following 21 days of exercise with or without simultaneous subcutaneous mini-osmotic pump treatment with S36 and then western blotted back for RyR1, phospho-epitope specific RyR1-pS2844, and calstabin1 bound to the RyR1 macromolecular complex.
The samples were incubated with protein A Sepharose beads (Amersham Pharmacia) at 4° C. for 1 h, after which the beads were washed three times with buffer. Proteins were separated on SDS PAGE gels (6% for RyR2 and 15% for calstabin2) and transferred onto nitrocellulose membranes overnight (SemiDry transfer blot, Bio-Rad). After incubation with 5% nonfat milk to prevent non-specific antibody binding and a wash in Tris-buffered saline with 0.1% Tween-20, membranes were incubated for 1-2 h at room temperature with primary antibodies anti-calstabin (1:1,000), anti-RyR (5029; 1:5,000), or anti-phospho-RyR2-pSer2809 (1:5,000), which detects PKA-phosphorylated mouse RyR1-pSer2844 and RyR2-pSer2808. After three washes, membranes were incubated with horseradish peroxidase-labeled anti-rabbit IgG (1:5,000, Transduction Laboratories, Lexington, Ky.), and developed with an enhanced chemiluminescent detection system (Amersham Pharmacia). Band densities were quantified by using QUANTITY ONE software (Bio-Rad).
(In general: In western blotting, separated proteins are transferred to a membrane and probed.)

Another series deals with hERG current (Homo sapiens, UniProt Q12809). Nature of the series: hERG current, manual whole-cell patch clamp in hERG-transfected HEK 293 cells (Example 5). In kind it is cell-based. Further details: expressed in transfected cells; host or cells: HEK 293. As to the method:
(§1) Electrophysiological recordings (using the whole-cell patch clamp method) were performed at room temperature (18° C.-24° C.). Each cell acted as its own control. The effect of ARM0036 was evaluated at two concentrations: 10 and 100 μM. Each concentration was tested in at least three cells (n≧3). 90 nM Cisapride (commercially available from TOCRIS Bioscience) was used as a positive control for hERG blockade. For recording, cells were transferred to the recording chamber and superfused with vehicle control solution. The patch pipette solution for whole cell recording contained 130 mM potassium aspartate, 5 mM MgCl2, 5 mM EGTA, 4 mM ATP and 10 mM HEPES. The pH was adjusted to 7.2 with KOH. The pipette solution was prepared in batches, aliquoted, and stored frozen. A fresh aliquot was thawed and used each day. Patch pipettes were made from glass capillary tubing using a P-97 micropipette puller (Sutter Instruments, Novato, Calif.). A commercial patch clamp amplifier was used for whole cell recordings. Before digitization, current records were low-pass filtered at one-fifth of the sampling frequency.
(Block of hERG is tested as a sign of cardiac risk.)

Another series addresses hERG (Homo sapiens, UniProt Q12809). The description is as above. Type of series: cell-based. Further details: expressed in transfected cells; host or cells: HEK 293. The note with it: human, HEK 293 cells stably transfected with hERG cDNA. The method, then:
as §1

T1 sequence (E9PZQ0 whole entry): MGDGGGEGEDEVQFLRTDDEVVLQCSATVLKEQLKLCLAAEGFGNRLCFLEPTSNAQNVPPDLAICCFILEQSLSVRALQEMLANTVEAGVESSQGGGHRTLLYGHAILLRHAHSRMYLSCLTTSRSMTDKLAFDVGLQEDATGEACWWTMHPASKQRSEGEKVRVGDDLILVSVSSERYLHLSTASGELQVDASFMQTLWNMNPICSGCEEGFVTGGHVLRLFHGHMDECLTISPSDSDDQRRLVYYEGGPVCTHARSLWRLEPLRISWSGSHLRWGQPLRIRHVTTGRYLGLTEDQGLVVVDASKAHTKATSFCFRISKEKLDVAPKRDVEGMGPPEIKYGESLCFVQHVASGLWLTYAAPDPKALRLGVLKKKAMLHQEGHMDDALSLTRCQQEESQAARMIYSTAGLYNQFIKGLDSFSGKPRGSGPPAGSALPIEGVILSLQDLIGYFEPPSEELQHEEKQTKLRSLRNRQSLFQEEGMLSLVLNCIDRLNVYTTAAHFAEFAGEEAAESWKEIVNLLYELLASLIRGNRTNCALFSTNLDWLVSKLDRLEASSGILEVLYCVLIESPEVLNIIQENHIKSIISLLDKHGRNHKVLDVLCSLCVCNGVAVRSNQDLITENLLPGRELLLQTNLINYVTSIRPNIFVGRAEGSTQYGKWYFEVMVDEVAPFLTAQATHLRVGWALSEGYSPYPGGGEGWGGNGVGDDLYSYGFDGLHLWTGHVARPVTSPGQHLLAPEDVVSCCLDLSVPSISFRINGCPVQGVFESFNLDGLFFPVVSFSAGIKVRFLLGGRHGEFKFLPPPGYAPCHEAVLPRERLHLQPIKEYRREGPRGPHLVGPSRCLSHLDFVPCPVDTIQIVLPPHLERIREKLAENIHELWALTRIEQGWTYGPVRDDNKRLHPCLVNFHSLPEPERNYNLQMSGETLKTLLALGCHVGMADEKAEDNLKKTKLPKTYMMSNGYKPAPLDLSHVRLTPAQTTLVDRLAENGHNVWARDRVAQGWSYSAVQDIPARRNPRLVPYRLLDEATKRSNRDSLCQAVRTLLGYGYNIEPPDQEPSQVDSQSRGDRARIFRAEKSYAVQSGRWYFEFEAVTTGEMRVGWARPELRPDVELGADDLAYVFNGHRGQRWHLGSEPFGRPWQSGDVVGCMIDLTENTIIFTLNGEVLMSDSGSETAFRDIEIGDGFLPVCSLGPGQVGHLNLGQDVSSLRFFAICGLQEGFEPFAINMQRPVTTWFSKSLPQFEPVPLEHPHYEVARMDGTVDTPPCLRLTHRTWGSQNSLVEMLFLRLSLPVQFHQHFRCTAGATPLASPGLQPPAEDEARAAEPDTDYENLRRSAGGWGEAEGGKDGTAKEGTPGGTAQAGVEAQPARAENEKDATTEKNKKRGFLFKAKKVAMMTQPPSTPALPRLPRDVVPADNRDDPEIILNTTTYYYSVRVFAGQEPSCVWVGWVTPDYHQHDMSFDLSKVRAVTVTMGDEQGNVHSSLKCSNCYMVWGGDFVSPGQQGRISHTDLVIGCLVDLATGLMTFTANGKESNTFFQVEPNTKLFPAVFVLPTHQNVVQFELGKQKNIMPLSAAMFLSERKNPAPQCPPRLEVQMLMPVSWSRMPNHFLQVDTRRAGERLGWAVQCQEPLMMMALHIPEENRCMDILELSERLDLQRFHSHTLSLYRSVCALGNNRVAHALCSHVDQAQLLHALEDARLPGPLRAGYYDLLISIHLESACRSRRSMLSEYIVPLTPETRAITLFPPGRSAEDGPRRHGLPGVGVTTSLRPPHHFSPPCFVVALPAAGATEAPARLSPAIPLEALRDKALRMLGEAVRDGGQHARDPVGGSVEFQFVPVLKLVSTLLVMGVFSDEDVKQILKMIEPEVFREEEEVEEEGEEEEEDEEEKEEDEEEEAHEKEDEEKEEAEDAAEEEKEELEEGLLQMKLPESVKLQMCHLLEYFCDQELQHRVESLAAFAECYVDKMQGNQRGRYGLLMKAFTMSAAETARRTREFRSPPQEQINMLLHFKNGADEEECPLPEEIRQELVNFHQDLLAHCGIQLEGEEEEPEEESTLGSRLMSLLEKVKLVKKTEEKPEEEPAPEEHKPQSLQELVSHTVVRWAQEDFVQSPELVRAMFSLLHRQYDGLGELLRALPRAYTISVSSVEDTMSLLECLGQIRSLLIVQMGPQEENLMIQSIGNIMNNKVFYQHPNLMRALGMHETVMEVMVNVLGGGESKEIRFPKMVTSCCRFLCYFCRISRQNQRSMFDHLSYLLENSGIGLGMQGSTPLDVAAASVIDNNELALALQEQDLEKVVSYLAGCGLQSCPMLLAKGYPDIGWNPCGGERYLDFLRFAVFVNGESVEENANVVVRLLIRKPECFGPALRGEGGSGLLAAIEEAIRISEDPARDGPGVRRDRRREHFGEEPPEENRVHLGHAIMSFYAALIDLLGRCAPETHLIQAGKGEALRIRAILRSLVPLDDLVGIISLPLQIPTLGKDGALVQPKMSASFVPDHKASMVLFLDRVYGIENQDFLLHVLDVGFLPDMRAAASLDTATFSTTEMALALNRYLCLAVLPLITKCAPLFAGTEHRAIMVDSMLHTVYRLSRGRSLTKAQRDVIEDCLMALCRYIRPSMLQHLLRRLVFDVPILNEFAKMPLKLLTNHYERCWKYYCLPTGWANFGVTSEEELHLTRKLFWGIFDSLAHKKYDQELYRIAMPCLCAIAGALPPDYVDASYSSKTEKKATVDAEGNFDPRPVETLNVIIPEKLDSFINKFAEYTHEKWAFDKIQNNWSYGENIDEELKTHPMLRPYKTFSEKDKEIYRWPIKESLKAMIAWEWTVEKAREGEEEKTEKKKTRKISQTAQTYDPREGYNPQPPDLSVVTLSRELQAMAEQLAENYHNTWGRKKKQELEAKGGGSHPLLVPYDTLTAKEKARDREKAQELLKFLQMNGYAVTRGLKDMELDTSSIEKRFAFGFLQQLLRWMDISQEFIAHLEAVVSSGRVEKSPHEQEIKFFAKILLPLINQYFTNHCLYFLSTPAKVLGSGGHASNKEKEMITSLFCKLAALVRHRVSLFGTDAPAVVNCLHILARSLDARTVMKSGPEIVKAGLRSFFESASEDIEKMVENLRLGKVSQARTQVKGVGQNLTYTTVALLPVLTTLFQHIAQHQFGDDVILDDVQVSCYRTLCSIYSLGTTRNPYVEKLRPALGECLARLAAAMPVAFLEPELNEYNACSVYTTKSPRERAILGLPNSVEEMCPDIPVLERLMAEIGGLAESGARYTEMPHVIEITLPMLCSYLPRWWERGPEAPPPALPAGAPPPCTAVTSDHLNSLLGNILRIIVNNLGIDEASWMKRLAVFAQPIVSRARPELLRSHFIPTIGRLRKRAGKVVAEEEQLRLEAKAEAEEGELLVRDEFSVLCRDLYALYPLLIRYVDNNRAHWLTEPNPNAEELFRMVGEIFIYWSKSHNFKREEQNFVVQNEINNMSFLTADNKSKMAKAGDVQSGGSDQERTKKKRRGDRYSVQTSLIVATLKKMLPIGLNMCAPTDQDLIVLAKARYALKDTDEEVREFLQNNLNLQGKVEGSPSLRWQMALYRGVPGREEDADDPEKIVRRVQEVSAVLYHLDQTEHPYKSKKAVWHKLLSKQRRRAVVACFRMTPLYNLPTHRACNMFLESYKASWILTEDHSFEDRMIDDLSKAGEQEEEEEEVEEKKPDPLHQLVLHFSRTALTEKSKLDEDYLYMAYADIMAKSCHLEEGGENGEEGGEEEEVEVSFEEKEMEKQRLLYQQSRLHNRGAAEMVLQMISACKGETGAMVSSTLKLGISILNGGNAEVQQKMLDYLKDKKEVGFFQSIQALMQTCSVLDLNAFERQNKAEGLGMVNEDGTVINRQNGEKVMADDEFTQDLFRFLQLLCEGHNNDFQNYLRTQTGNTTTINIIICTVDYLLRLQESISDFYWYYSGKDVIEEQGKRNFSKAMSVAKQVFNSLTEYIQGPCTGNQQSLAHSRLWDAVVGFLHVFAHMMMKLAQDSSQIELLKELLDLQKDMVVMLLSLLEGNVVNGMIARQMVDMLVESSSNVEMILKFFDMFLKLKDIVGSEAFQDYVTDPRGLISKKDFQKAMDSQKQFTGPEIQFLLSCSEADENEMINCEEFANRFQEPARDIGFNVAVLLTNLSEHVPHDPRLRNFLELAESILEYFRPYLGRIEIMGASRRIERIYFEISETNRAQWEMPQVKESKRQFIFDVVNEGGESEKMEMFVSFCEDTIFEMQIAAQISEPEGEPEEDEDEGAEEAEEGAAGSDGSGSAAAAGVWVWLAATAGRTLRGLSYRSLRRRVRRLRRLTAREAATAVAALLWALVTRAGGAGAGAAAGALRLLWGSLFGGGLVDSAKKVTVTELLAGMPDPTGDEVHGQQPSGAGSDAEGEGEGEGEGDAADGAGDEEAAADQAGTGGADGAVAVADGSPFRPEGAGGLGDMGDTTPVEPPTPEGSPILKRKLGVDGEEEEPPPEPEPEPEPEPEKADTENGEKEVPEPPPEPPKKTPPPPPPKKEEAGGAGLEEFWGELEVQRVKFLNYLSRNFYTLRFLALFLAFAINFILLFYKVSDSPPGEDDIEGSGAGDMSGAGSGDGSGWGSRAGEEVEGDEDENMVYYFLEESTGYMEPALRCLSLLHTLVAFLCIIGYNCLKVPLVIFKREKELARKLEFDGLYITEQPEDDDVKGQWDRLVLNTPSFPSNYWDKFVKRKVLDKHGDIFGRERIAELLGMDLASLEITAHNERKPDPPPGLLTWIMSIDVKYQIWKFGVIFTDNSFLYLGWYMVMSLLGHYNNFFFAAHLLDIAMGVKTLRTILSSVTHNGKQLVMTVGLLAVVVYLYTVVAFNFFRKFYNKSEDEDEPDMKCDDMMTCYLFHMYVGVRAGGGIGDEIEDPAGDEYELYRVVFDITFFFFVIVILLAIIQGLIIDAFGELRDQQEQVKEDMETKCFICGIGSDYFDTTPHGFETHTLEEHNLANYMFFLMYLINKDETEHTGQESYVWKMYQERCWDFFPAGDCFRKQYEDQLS
T1 sequence (P26883 2-108 partner limits assumed): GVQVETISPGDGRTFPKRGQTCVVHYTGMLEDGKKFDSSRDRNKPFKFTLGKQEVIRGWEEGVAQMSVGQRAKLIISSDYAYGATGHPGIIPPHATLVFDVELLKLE

As for `COc1ccc2c(c1)CN(C)CCS2` [S107], the calpain activity result in the series with calpain was “reduces calpain activity”. In addition, on RyR1 [1], the “duration of the channel dwell times” value is reported as “Neither chronic exercise nor S107 had any effect”. At RyR1 [1] (Ex+S107 vs Ex+veh, p<0.005), the RyR1 open probability result is reported as “significant decrease”. The “effect on L-type calcium channel current” value in series [2] is on record as “not to affect”.

On to `COc1ccc2c(c1)CN(C(=O)C(=O)O)CCS2` [S36], for which, at RyR1 [3], the “calstabin1 bound to RyR1” value is recorded as “allows RyR1 to rebind calstabin1”. The “block of HERG K+ channel (IKr)” value on hERG current is on record as “does not block”. Also, on hERG current (100 μM), the “effect on hERG outward tail current” value is reported as “minimally reduced”. The inhibition at 10 µM at hERG (10 μM, read-out: Mean percent inhibition of hERG current) came to 0.7%. Also, the inhibition at 100 µM on hERG (100 μM, read-out: Mean percent inhibition of hERG current) is 0.9%; on hERG (highest concentration tested (100 μM), read-out: hERG current inhibition at the highest concentration tested) it was less than 50%.
